Here are results for one compound from EP3748362A1, “IN VITRO METHOD FOR DETECTING RENAL DISEASE” (Fundacion Instituto De Investigacion Sanitaria Fundacion …, priority 2019, dated 2020).

In test [1] the test system is TRAF3. The experiment in a line: TRAF3 protein (western blot) and mRNA (real time RT-PCR) levels in PBMCs from ESRD patients treated or not with paricalcitol. It is filed as in vivo, human. Conditions: PBMCs of paricalcitol-treated ESRD patients on hemodialysis. As to the method: (§1) Intracellular protein and mRNA levels were measured in PBMCs from ESRD patients on hemodialysis. Inclusion criteria were as follows: age >45 years; male sex; informed consent; and absence of active inflammatory, infectious, or malignant diseases at the initiation or during the study. This study was approved by the IIS-Fundación Jiménez Diaz Ethics Committee. Patients were enrolled after providing written informed consent. PBMCs were separated from whole blood samples (30 ml into EDTA tubes) by a density gradient centrifugation method using Ficoll density gradient centrifugation. In total, 50x10^6 of PBMCs were obtained from 30 ml of whole blood and 6x10^6 PBMCs were used to isolate protein, RNA and nuclear/cytosolic protein levels using the NE-PER Reagent (Pierce) following the manufacturer's instructions.
For western blot, cell (25 µg/lane) and kidney (100-150 µg/lane) protein extracts were separated on 6%-12% polyacrylamide-SDS gels under reducing conditions. […] Autoradiographs were scanned using the Gel Doc™ EZ imager and analyzed with the Image Lab 3.0 software (BioRad).
Total RNA was isolated from cells and mouse kidney samples with Trizol (Invitrogen). […] The mRNA copy numbers were calculated for each sample by the instrument software using Ct value. Results are expressed in copy numbers, calculated relative to unstimulated cells or control mice, after normalization against 18S.
(In western blotting, separated proteins are transferred to a membrane and probed.)

In test [2] the test system is TWEAK-induced renal inflammation. The experiment in a line: TWEAK-induced renal inflammation in mice (immunohistochemistry, real time PCR, ELISA). Conditions: TWEAK-injected mice, paricalcitol 750 ng/kg/day or SN52 0.7 mg/mouse/day. In kind it is in vivo, C57BL/6 mice. As to the method: All animal procedures were performed according to the guidelines of animal research in the European Community and with prior approval by the Ethics Committee of the Health Research of the IIS-Fundacion Jiménez Díaz. For in vivo studies, mice received a daily intraperitoneal injection of the VDRA Paricalcitol starting 48 hours prior to induction of kidney damage.
At the time of sacrifice, animals were anesthetized with 5 mg/kg xylazine (Rompun, Bayer AG) and 35 mg/kg ketamine (Ketolar, Pfizer) and the kidneys perfused in situ with cold saline before removal. […]
Paraffin-embedded kidney sections (3 µm) were stained using conventional methods. […] For each sample (processed by duplicate in a blinded manner), the average value was obtained from the analysis of 4 fields (20X objective) as density/mm2 or percentage stained area vs total analyzed area. Data are expressed as fold increase over control mice, as mean ± SEM of 8-10 animals per group. […]
ELISA was used to evaluate levels of the chemokines CCL2 and CCL5 (eBioscience). In renal samples, total protein content was determined by the BCA method, and equal amounts of protein were analyzed. Data are expressed as n-fold increase over the mean of control levels.
Total RNA was isolated from cells and mouse kidney samples with Trizol (Invitrogen). […] The mRNA copy numbers were calculated for each sample by the instrument software using Ct value. […]
In general terms: Real-time PCR tracks product formation cycle by cycle.

Test [3] concerns RelB or p52/NF-κB2. The experiment in a line: p52 and RelB DNA binding activity in PBMCs from ESRD patients on hemodialysis. In kind it is in vivo, human. Conditions: PBMCs from paricalcitol-treated ESRD patients; RelB or p52 DNA binding activities. As to the method:
as §1
Nuclear and cytoplasmic fractions were separated from renal tissues using the NE-PER Reagent (Pierce) following the manufacturer's instructions. In renal nuclear extracts, NF-κB2 and RelB DNA binding activity was measured by its binding to an oligonucleotide containing the NF-κB consensus site using a TransAM NF-κB Family kit (Active Motif) with an antibody that only recognizes active NF-κB2 p52 and RelB.

For `C[C@H](/C=C/[C@H](C)C(C)(C)O)[C@H]1CC[C@H]2/C(=C/C=C3C[C@@H](O)C[C@H](O)C3)CCC[C@]12C` [paricalcitol], the “TRAF3 mRNA levels” value in test [1] (real time RT-PCR) is “no changes”. Also, the TRAF3 protein levels result in test [1] (western blot, vs healthy controls) is on record as “restored to values in the range of healthy controls”. Further, the “proinflammatory factors, such as CCL2, CCL5 and IL-6” value in test [2] (kidney, real time PCR, ELISA) is “significantly decreased”. Moreover, the “infiltrating monocytes/macrophages (F4/80+ cells), T lymphocytes (CD3+ cells)” value in test [2] (kidney immunohistochemistry) was “significantly decreased”. Also, in test [3], the NF-κB2 pathway activation result is recorded as “inhibited”.
